Test results taken from patent US20110233146A1, “S[…] CONTROL COMPOSITION, SYSTEMS, AND RELATED METHODS THEREFOR” (Siemens Water Technologies Corp., priority 2009, published 2011).

Assays:
[1] = test system: atmospheric hydrogen sulfide; test: Example 2: slug dose of anthraquinone alone, all other chemical feed off at LS482, atmospheric hydrogen sulfide by OdaLog monitor/loggers
Protocol: In order to gather the required information, the two OdaLog® hydrogen sulfide monitor/loggers were deployed in the manhole just prior to lift station LS481 prior to 10:00 a.m. on day one. At 10:00 a.m. on day one all chemical feed was turned off at lift station LS482. At 10:00 a.m. on day two a ten gallon slug of anthraquinone (AQUIT) was added to the flow through the manhole at lift station LS482. At 10:00 a.m. on day three, regular chemical feed was resumed at lift station LS482. The OdaLog® monitor/loggers were retrieved on day six and downloaded to retrieve the atmospheric hydrogen sulfide concentrations before, during, and following the trial.
Data was collected over a period of several days to include a full day prior to the test and a full day after the test as summarized in the graph of FIG. 7.
The average atmospheric hydrogen sulfide concentration for the 24 hour period with no chemical additive was about 1,032 ppmv. During the following 24 hour period during which the effect of the slug dose of anthraquinone, the atmospheric hydrogen sulfide concentration averaged about 999 ppmv; the hydrogen sulfide concentration was thus reduced by about 3.2 percent.

[2] = test system: atmospheric hydrogen sulfide; test: Sewerage system field trial (Example 1): atmospheric hydrogen sulfide logged at lift stations LS481 and LS480
Description: The collection system consisted of four serial master lift stations LS 479, LS482, LS 481, and LS 480 feeding wastewater to a central treatment plant WWTP as depicted in FIG. 2.
Calcium hydroxide (with or without anthraquinone) feed rate was dependent mainly on the wastewater flow rate.
Data collected included atmospheric hydrogen sulfide collected every five minutes with monitor/loggers within the monitoring manhole at lift station LS481 and inside the lift station LS480, and dissolved sulfide grab samples at each as well as treatment plant WWTP. Nitrate residual and pH data were also collected. […] The chemical feed line was disposed to feed into the manhole about 50 feet upstream of lift station LS482.
Over the next few weeks the controller pH set point was adjusted until the desired atmospheric pH was attained downstream at lift station LS481.
Two batches of a formulation of calcium hydroxide supplemented with anthraquinone were fed to determine the effectiveness of the combination for controlling odor.
The primary monitoring point for atmospheric hydrogen sulfide was at lift station LS481. The primary monitoring point for dissolved sulfide was the plant influent. During the period from June 23 to July 14 background data was gathered (FIG. 4) to reflect the system operating on nitrate salt feed at all four lift stations.
The data was tabulated for every day on which no calcium hydroxide was fed and that nitrate salt was fed at all four lift stations.

[3] = 10/14 to 10/17, after 10 gal anthraquinone slug on 10/13 at LS482, with calcium hydroxide slurry 258 GPD, nitrate salt solution 197 GPD

In the case of `O=C1c2ccccc2C(=O)c2ccccc21` [Anthraquinone, anthraquinone], the “average atmospheric hydrogen sulfide concentration” value ([1]; 24 hour period under the effect of a ten gallon slug of anthraquinone alone, preceding 24 hours with no chemical additive about 1,032 ppmv) is reported as “about 999 ppmv”, the “hydrogen sulfide concentration reduced by” value ([1]; ten gallon slug of anthraquinone alone versus preceding 24 hours with no chemical additive) is reported as “about 3.2%” and the “LS480 Avg Atm H2S” value [2, 3] is reported as 305 ppmv. The “LS481 Avg Atm H2S” value [2, 3] was 100 ppmv, the “decrease in atmospheric hydrogen sulfide concentration at the downstream monitoring point” value ([2]; anthraquinone added to the alkaline material used for pH adjustment, versus alkaline material without it) was 21% and the “atmospheric hydrogen sulfide downstream dropped” value ([2]; anthraquinone added with calcium hydroxide to the sewer upstream of the sampling point (see Table 8)) was 37.5%. The “reduction in the hydrogen sulfide concentration at the downstream monitoring point lift station LS481” value ([2]; one time slug of anthraquinone along with the calcium hydroxide feed, over the next four days) was “about 38%”.
